Data set [1] deals with HIV-1 (IIIB). Put plainly: Antiviral assay in MT-4 cells. The note with it: HIV-1 IIIB in MT-4 cells, 5 days incubation, Cell Titer Glo, read-out: MT4 EC50. The data set is classed as cell-based. In a few lines:
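Read-out: CellTiter-Glo luminescence after 5 days at 37 °C, reflecting survival of MT-4 cells infected with HIV-1 IIIB (1:250 fresh stock dilution) versus mock-infected. Compounds serially diluted into RPMI with 10% FBS; AZT at 5 μM served as positive control.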

In data set [2] the test system is MT-4 cells. Kind of data set: Cytotoxicity assay in MT-4 cells. The data set is classed as cell-based. The note with it: uninfected MT-4 cells, 5 days incubation, Cell Titer Glo; read-out: MT4 CC50. In a few lines: (§1)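 Viability read by Cell Titer Glo luminescence after 5 days at 37 °C. MT-4 cells, not infected, in complete RPMI (10% FBS), received compound dilution series. Base cytotoxicity set with […] puromycin.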

Data set [3] in a line: Cytotoxicity assay in MT-4 cells. Format: cell-based. The note with it: human; uninfected MT-4 cells, 5 days incubation, Cell Titer Glo; read-out: MT4 CC50. In a few lines:
as §1

The nature of data set [4]: physchem. Format: physicochemical. The note with it: ambient temperature, 5 mg/mL dose concentration; for solubility thermodynamic / solubility thermodynamic at 24 h: 23 °C, thermodynamic from solid; for solubility thermodynamic: aqueous buffer; for solubility thermodynamic at 24 h: FaSSIF. How it is done:
Approximately 7 mg of each test compound as a dry powder was placed in a vial. Aliquots were weighed out for each assay media at 2 hour and 24 hour time points, to be analyzed. The appropriate buffer (FaSSIF or PBS) was added to each vial such that the final dose concentration of 5 mg/mL was achieved. […] The plate was sealed with a pierceable heat seal and analyzed by HPLC-UV.
A system QC (0.01 mg/mL Caffeine in DMSO) was injected every 12-15 injections. […] Results are reported using data obtained at 280 nm. The resulting peak areas were plotted against the known concentrations from the calibration and the filtrates are quantified with respect to the linear regression using Agilent OpenLab Intelligent Reporting Software. The results are reported electronically in mg/mL.

The mark [5] stands for this setting: Human immunodeficiency virus 1, MT4, 120 h.

Each structure is given as a SMILES string. Values after ≈ are worked out from the molar mass of the structure shown. Where two headings read alike, the source gives them in different places.

For the compound `COC(=O)OCOc1c2n(cc(C(=O)NCc3ccc(F)cc3F)c1=O)[C@@H]1CN(C2=O)[C@@H](C)CC[C@]12CC(OC)=NO2` [Example 11, (((3′S,5S,7′R)-10′-((2,4-difluorobenzyl)carbamoyl)-3-methoxy-3′-methyl-1′,11′-dioxo-1′,4′,5′,11′-tetrahydro-3′H,4H,7′H-spiro[isoxazole-5,6′-[2,7]methanopyrido[1,2-a][1,4]diazonin]-12-yl)oxy)methyl methyl carbonate], in data set [1], the EC50 was determined as 8.34 nM. Further, in data set [2], the CC50 turned out to be 36.8 µM.

For the compound `CC(=O)Oc1c2n(cc(C(=O)NCc3ccc(F)cc3F)c1=O)[C@@H]1CN(C2=O)[C@@H](C)CC[C@]12CC(C)=NO2` [Example 16, (3′S,5S,7′R)-10′-((2,4-difluorobenzyl)carbamoyl)-3,3′-dimethyl-1′,11′-dioxo-1′,4′,5′,11′-tetrahydro-3′H,4H,7′H-spiro[isoxazole-5,6′-[2,7]methanopyrido[1,2-a][1,4]diazonin]-12′-yl acetate], the EC50 in data set [1] (setting [5]) was 1.3 nM. For the same compound, the CC50 at 5 days in data set [3] came to 11.2 µM. For the same compound, the solubility (thermodynamic) in data set [4] (PBS) came to 372 µg/mL. In data set [4], the thermodynamic solubility at 24 h was 270 µg/mL.

With `CCCCC(=O)Oc1c2n(cc(C(=O)NCc3ccc(F)cc3F)c1=O)[C@@H]1CN(C2=O)[C@@H](C)CC[C@]12CC(C)=NO2` [Example 17, (3′S,5S,7′R)-10′-((2,4-difluorobenzyl)carbamoyl)-3,3′-dimethyl-1′,11′-dioxo-1′,4′,5′,11′-tetrahydro-3′H,4H,7′H-spiro[isoxazole-5,6′-[2,7]methanopyrido[1,2-a][1,4]diazonin]-12′-yl pentanoate], the EC50 in data set [1] (setting [5]) was found to be 1.28 nM. Also, in data set [3], the CC50 at 5 days turned out to be 10.2 µM. The “Thermodynamic PBS Solubility (mg/mL)” value in data set [4] (PBS) is on record as “<LOD”.

As to `CC1=NO[C@@]2(CC[C@H](C)N3C[C@H]2n2cc(C(=O)NCc4ccc(F)cc4F)c(=O)c(OC(=O)C(C)(C)C)c2C3=O)C1` [Example 19, (3′S,5S,7′R)-10′-((2,4-difluorobenzyl)carbamoyl)-3,3′-dimethyl-1′,11′-dioxo-1′,4′,5′,11′-tetrahydro-3′H,4H,7′H-spiro[isoxazole-5,6′-[2,7]methanopyrido[1,2-a][1,4]diazonin]-12′-yl pivalate], in data set [1] (setting [5]), the EC50 came to 1.53 nM. Besides, the CC50 at 5 days in data set [3] amounted to 12.3 µM. Moreover, the thermodynamic solubility at 24 h in data set [4] came out at 83 µg/mL (≈ 145 µM).

`CC1=NO[C@@]2(CC[C@H](C)N3C[C@H]2n2cc(C(=O)NCc4ccc(F)cc4F)c(=O)c(OC(=O)OC(C)C)c2C3=O)C1` [Example 22, (3′S,5S,7′R)-10′-((2,4-difluorobenzyl)carbamoyl)-3,3′-dimethyl-1′,11′-dioxo-1′,4′,5′,11′-tetrahydro-3′H,4H,7′H-spiro[isoxazole-5,6′-[2,7]methanopyrido[1,2-a][1,4]diazonin]-12′-yl isopropyl carbonate]: the EC50 in data set [1] (setting [5]) was 0.992 nM. Moreover, in data set [3], the CC50 at 5 days stood at 12.5 µM. The compound also had a solubility (thermodynamic) in data set [4] (PBS) of 34 µg/mL (≈ 59.4 µM). In addition, the solubility (thermodynamic) at 24 h in data set [4] came out at 70 µg/mL (≈ 122 µM).

As for `CC1=NO[C@@]2(CC[C@H](C)N3C[C@H]2n2cc(C(=O)NCc4ccc(F)cc4F)c(=O)c(OCOC(=O)OC(C)C)c2C3=O)C1` [Example 24, (((3′S,5S,7′R)-10′-((2,4-difluorobenzyl)carbamoyl)-3,3′-dimethyl-1′,11′-dioxo-1′,4′,5′,11′-tetrahydro-3′H,4H,7′H-spiro[isoxazole-5,6′-[2,7]methanopyrido[1,2-a][1,4]diazonin]-12′-yl)oxy)methyl isopropyl carbonate], the EC50 in data set [1] (setting [5]) was 5.17 nM. Besides, in data set [3], the CC50 at 5 days was determined as 31.7 µM. In addition, the solubility (thermodynamic) at 24 h in data set [4] worked out at 8 µg/mL (≈ 13.3 µM).

Source of the values: US20250122219A1 (priority 2023, published 2025).
